Test results reported in patent US12247004B2, “2-amino-N-(amino-oxo-aryl-lambda6-sulfanylidene)acetamide compounds and their therapeutic use” (Oxford Drug Design Limited, priority 2019, dated 2025).
In brackets after ≈: the same amount, converted by molar mass. Counter-ions that a name gives are not always drawn. Like-named read-outs stand apart in the source and are kept apart here.

Key:
[1] = biological target: Leucyl-tRNA synthetase (LeuRS) (Escherichia coli (strain K12), UniProt P07813); experiment: Leucyl-tRNA synthetase enzyme inhibition (AMP-Glo; single point % inhibition at 100 μM and IC50); assay type: biochemical
Sequence of Leucyl-tRNA synthetase (LeuRS) (P07813 whole entry, looked up): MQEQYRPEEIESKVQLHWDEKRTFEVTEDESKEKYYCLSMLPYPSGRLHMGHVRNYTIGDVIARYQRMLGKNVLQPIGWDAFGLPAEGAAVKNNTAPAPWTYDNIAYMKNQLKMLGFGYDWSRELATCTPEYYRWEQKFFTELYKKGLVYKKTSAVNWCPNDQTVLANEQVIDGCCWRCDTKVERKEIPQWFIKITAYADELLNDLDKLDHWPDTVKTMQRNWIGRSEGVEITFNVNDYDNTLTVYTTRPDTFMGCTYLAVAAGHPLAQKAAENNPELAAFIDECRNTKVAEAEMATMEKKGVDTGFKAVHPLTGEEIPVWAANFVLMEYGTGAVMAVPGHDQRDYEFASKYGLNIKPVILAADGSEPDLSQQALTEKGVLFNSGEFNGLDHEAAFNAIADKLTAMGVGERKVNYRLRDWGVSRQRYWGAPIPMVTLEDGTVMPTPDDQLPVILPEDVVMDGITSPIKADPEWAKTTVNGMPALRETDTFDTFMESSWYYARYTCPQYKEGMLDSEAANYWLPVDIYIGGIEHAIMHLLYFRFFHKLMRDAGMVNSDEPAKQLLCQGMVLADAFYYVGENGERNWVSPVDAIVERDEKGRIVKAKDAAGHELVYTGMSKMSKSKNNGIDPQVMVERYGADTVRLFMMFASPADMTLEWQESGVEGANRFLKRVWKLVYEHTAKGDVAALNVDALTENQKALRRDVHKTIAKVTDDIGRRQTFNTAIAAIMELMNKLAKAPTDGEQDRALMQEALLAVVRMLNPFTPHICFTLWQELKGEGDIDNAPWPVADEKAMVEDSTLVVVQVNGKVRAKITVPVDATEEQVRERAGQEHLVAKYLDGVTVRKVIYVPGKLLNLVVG

[2] = Human cell viability / cytotoxicity (CellTiter-Glo, 24 hours); assay type: cell-based; settings: human, HepG2 cells (ATCC HB-8065); HepG2 ATCC HB-8065, 24 hours; read-out: Cytotoxicity in HepG2 ATCC HB-8065 Cell Line, IC50
Description: Study 3—Human Cell Viability
Compounds were assessed for potential non-specific cytotoxic effects against a human hepatic cell line (HepG2 ATCC HB-8065). 96-well plates were seeded with HepG2 cells in concentration of 15,000 cells per well in 100 μL of MEM growth media completed with 1% NEAA and 1% sodium pyruvate. Border wells were filled with 100 μL of sterile PBS. Two days upon cells incubation, the compounds were added. Compound dilutions were prepared in 96-well V-bottom plate in pure DMSO. Growth media from 5 plates were aspirated and replaced with 98.7 μL of fresh growth media. 1.28 μL of compounds prepared in V-bottom plates were transferred with multichannel pipette into test plates (78.1× dilution). Final DMSO concentration was 1.28% per well. In control wells, 1.28 μL of DMSO was added in 98.7 μL of media. Compounds were tested in duplicates. Cells were incubated with compounds for 24 hours when cell viability was assessed by measuring ATP levels. ATP levels were measured by adding 50 μL of CellTiter-Glo reagent to each well and after 5 minutes of incubation luminescence was measured with SpectraMax i3. The potential effect of tested compounds on cell viability was determined by comparing the signal obtained in presence of different concentrations of the compounds with those obtained in the presence of DMSO only. The potential effects were then calculated and presented as IC50 values (μg/mL).

[3] = test system: bacteria (ATCC reference strains); experiment: Antibacterial activity, MIC by broth micro-dilution (CLSI)
[4] = Acinetobacter baumannii, read-out: Antibacterial Activity (MIC), E = A. baumannii B1931
[5] = Enterobacter cloacae, read-out: Antibacterial Activity (MIC), B = Enterobacter cloacae B1966
[6] = Escherichia coli, ATCC25922, read-out: Antibacterial Activity (MIC), A = E. coli ATCC 25922
[7] = Haemophilus influenzae, ATCC49247, read-out: Antibacterial Activity (MIC), F = H. influenzae ATCC 49247
[8] = Klebsiella pneumoniae, ATCC700603, read-out: Antibacterial Activity (MIC), C = K. pneumoniae ATCC 700603
[9] = Pseudomonas aeruginosa, ATCC27853, read-out: Antibacterial Activity (MIC), D = P. aeruginosa ATCC 27853
[10] = Escherichia coli, BAA2469, read-out: Antibacterial Activity (MIC), G = E. coli BAA-2469
[11] = E. coli LeuRS, read-out: Enzyme Inhibition - IC50, E. coli LeuRS

For CC(C)C[C@H](N)C(=O)N=[S@](N)(=O)c1cccc(Cl)c1F.Cl [ANASIA-001-1], the IC50 [1] was 535 nM, the IC50 at 24 h [2] was > 64 µg/mL and the MIC [3, 4] was > 64 µg/mL. The MIC [3, 5] was > 64 µg/mL, the MIC [3, 6] was 16 µg/mL and the MIC [3, 7] was 32 µg/mL. For the same molecule, the MIC [3, 8] was > 64 µg/mL and the MIC [3, 9] was > 64 µg/mL.
For CC(C)C[C@H](N)C(=O)N=[S@](N)(=O)c1cccc(Cl)c1.Cl [ANASIA-002-1], the IC50 [1] was 27.5 nM, the IC50 at 24 h [2] was > 64 µg/mL and the MIC [3, 4] was 32 µg/mL. For the same molecule, the MIC [3, 5] was 8 µg/mL, the MIC [3, 6] was 1 µg/mL and the MIC [3, 10] was 4 µg/mL. The MIC [3, 7] was 2 µg/mL, the MIC [3, 8] was 32 µg/mL and the MIC [3, 9] was > 64 µg/mL.
For CC(C)C[C@H](N)C(=O)N=[S@@](N)(=O)c1cccc(Cl)c1.Cl [ANASIA-002-2], the IC50 [1, 11] was 1050 nM, the IC50 at 24 h [2] was > 64 µg/mL and the MIC [3, 4] was > 64 µg/mL. The MIC [3, 5] was > 64 µg/mL, the MIC [3, 6] was 64 µg/mL and the MIC [3, 7] was > 64 µg/mL. For the same molecule, the MIC [3, 8] was > 64 µg/mL and the MIC [3, 9] was > 64 µg/mL.
With CC(C)C[C@H](N)C(=O)N=S(N)(=O)c1cccc(Cl)c1 (some centres unmarked) [ANASIA-002] the IC50 [1, 11] was 110 nM, the IC50 at 24 h [2] was > 64 µg/mL and the MIC [3, 4] was > 45.3 µg/mL. For the same molecule, the MIC [3, 5] was > 45.3 µg/mL, the MIC [3, 6] was 2.83 µg/mL (≈ 9.31 µM) and the MIC [3, 7] was 5.66 µg/mL (≈ 18.6 µM). For the same molecule, the MIC [3, 8] was > 22.6 µg/mL and the MIC [3, 9] was > 64 µg/mL.
For CC(C)C[C@H](N)C(=O)N=[S@](N)(=O)c1ccccc1.Cl [ANASIA-003-1, (S)-2-amino-N—((S)-amino(oxo)(phenyl)-λ6-sulfanylidene)-4-methylpentanamide hydrochloride], the IC50 [1, 11] was 61.5 nM, the IC50 at 24 h [2] was > 64 µg/mL and the MIC [3, 4] was 64 µg/mL. The MIC [3, 5] was 16 µg/mL, the MIC [3, 6] was 4 µg/mL and the MIC [3, 7] was 8 µg/mL. It also gave an MIC [3, 8] of 16 µg/mL and an MIC [3, 9] of 64 µg/mL.
With CC(C)C[C@H](N)C(=O)N=S(N)(=O)c1ccccc1 (some centres unmarked) [ANASIA-003] the IC50 [1, 11] was 92.9 nM, the IC50 at 24 h [2] was > 64 µg/mL and the MIC [3, 4] was 32 µg/mL (≈ 119 µM). It also gave an MIC [3, 5] of 16 µg/mL (≈ 59.4 µM), an MIC [3, 6] of 2.83 µg/mL (≈ 10.5 µM) and an MIC [3, 7] of 16 µg/mL (≈ 59.4 µM). The MIC [3, 8] was 8 µg/mL (≈ 29.7 µM) and the MIC [3, 9] was 50.8 µg/mL (≈ 189 µM).
With Cc1csc(S(N)(=O)=NC(=O)[C@@H](N)CC(C)C)n1 (stereo partly drawn) [ANASIA-004, (2S)-2-amino-N-(amino(4-methylthiazol-2-yl)(oxo)-λ6-sulfanylidene)-4-methyl pentanamide hydrochloride] the IC50 [1, 11] was 91.6 nM, the IC50 at 24 h [2] was > 64 µg/mL and the MIC [3, 4] was 64 µg/mL. The MIC [3, 5] was > 64 µg/mL, the MIC [3, 6] was 16 µg/mL and the MIC [3, 7] was 8 µg/mL. The MIC [3, 8] was > 64 µg/mL and the MIC [3, 9] was 64 µg/mL.
For Cc1cccc([S@](N)(=O)=NC(=O)[C@@H](N)CC(C)C)c1 [ANASIA-005-2], the IC50 [1, 11] was 151 nM, the IC50 at 24 h [2] was > 64 µg/mL and the MIC [3, 4] was > 64 µg/mL. It also gave an MIC [3, 5] of 64 µg/mL (≈ 226 µM), an MIC [3, 6] of 8 µg/mL (≈ 28.2 µM) and an MIC [3, 10] of 32 µg/mL (≈ 113 µM). The MIC [3, 7] was 16 µg/mL (≈ 56.5 µM), the MIC [3, 8] was > 64 µg/mL and the MIC [3, 9] was > 64 µg/mL.
With Cc1cccc(S(N)(=O)=NC(=O)[C@@H](N)CC(C)C)c1 (some centres unmarked) [ANASIA-005] the IC50 [1, 11] was 381 nM, the IC50 at 24 h [2] was > 64 µg/mL and the MIC [3, 4] was 64 µg/mL (≈ 226 µM). For the same molecule, the MIC [3, 5] was 32 µg/mL (≈ 113 µM), the MIC [3, 6] was 8 µg/mL (≈ 28.2 µM) and the MIC [3, 7] was 32 µg/mL (≈ 113 µM). For the same molecule, the MIC [3, 8] was 32 µg/mL (≈ 113 µM) and the MIC [3, 9] was > 64 µg/mL.
In the case of CC(C)C[C@H](N)C(=O)N=S(N)(=O)c1cccnc1 (some centres unmarked) [ANASIA-006], the IC50 [1, 11] is reported as 708 nM, the IC50 at 24 h [2] is reported as > 64 µg/mL and the MIC [3, 4] is reported as > 64 µg/mL. For the same molecule, the MIC [3, 5] was > 64 µg/mL, the MIC [3, 6] was 64 µg/mL (≈ 237 µM) and the MIC [3, 7] was > 64 µg/mL. For the same molecule, the MIC [3, 8] was > 64 µg/mL and the MIC [3, 9] was > 64 µg/mL.
With CC(C)C[C@H](N)C(=O)N=[S@](N)(=O)c1ccsc1.Cl [ANASIA-008-1] the IC50 [1] was 30.6 nM, the IC50 at 24 h [2] was > 64 µg/mL and the MIC [3, 4] was 32 µg/mL. The MIC [3, 5] was 8 µg/mL, the MIC [3, 6] was 2 µg/mL and the MIC [3, 7] was 4 µg/mL. It also gave an MIC [3, 8] of 8 µg/mL and an MIC [3, 9] of 32 µg/mL.
For CC(C)C[C@H](N)C(=O)N=S(N)(=O)c1ccsc1 (some centres unmarked) [ANASIA-008], the IC50 [1, 11] was 144 nM, the IC50 at 24 h [2] was > 64 µg/mL and the MIC [3, 4] was 32 µg/mL (≈ 116 µM). The MIC [3, 5] was 16 µg/mL (≈ 58.1 µM), the MIC [3, 6] was 2 µg/mL (≈ 7.26 µM) and the MIC [3, 7] was 16 µg/mL (≈ 58.1 µM). The MIC [3, 8] was 8 µg/mL (≈ 29 µM) and the MIC [3, 9] was 32 µg/mL (≈ 116 µM).
